{"source": "ChEMBL document CHEMBL4706519", "about": "“Evaluation of N-phenyl-2-aminothiazoles for treatment of multi-drug resistant and intracellular Staphylococcus aureus infections” (Eur J Med Chem, 2020)", "key": {"Staphylococcus aureus [1]": {"test_system": "Staphylococcus aureus", "assay": "Antibacterial activity against methicillin-resistant Staphylococcus aureus USA400 NRS123 infected in mouse J774 cells assessed as log reduction in intracellular bacterial burden at 2 x MIC measured after 24 hrs", "assay_type": "functional"}, "Staphylococcus aureus [2]": {"test_system": "Staphylococcus aureus", "assay": "Bactericidal activity against methicillin-resistant Staphylococcus aureus USA400 NRS123 assessed as post-antibiotic effect at 5 times MIC incubated for 2 hrs followed by compound wash-out by viable plate count method", "assay_type": "functional"}, "[3]": {"assay": "Selectivity index, ratio of maximum non-toxic concentration for human Caco-2 cells to MIC for methicillin-resistant Staphylococcus aureus NRS119", "assay_type": "toxicity"}, "Staphylococcus aureus [4]": {"test_system": "Staphylococcus aureus", "assay": "Ratio of MIC for methicillin-resistant Staphylococcus aureus USA400 NRS123 measured after 13th passage to MIC for methicillin-resistant Staphylococcus aureus USA400 NRS123 measured after 18 to 20 hrs by broth microdilution assay", "assay_type": "functional"}, "[5]": {"assay": "Half life in human liver microsomes at 0.1 uM in absence of NADPH by LC/MS/MS analysis", "assay_type": "ADME, Microsome"}, "Staphylococcus aureus [6]": {"test_system": "Staphylococcus aureus", "assay": "Antibacterial activity against vancomycin-resistant Staphylococcus aureus 10 assessed as inhibition of bacterial growth measured after 18 to 20 hrs by CLSI protocol based broth microdilution method", "assay_type": "functional", "conditions": "time 18-20 hrs"}, "[7]": {"assay": "Cytotoxicity against human Caco-2 cells assessed as cell viability at 64 ug/ml incubated for 2 hrs by MTS assay relative to control", "assay_type": "cell-based", "conditions": "at 64 µg/mL, read-out: Activity"}, "Streptococcus pneumoniae [8]": {"test_system": "Streptococcus pneumoniae", "assay": "Ratio of MBC to MIC for methicillin-resistant Streptococcus pneumoniae ATCC 700677 assessed as inhibition of bacterial growth measured after 18 to 20 hrs by CLSI protocol based broth microdilution method", "assay_type": "functional", "conditions": "time 18-20 hrs"}, "[9]": {"assay": "Selectivity index, ratio of maximum non-toxic concentration for human Caco-2 cells to MIC for methicillin-resistant Staphylococcus aureus USA300 NRS384", "assay_type": "toxicity"}, "in vitro": {"assay": "in vitro", "conditions": "human, liver microsomes"}, "Listeria monocytogenes [10]": {"test_system": "Listeria monocytogenes", "assay": "Ratio of MBC to MIC for Listeria monocytogenes ATCC 19111 assessed as inhibition of bacterial growth measured after 18 to 20 hrs by CLSI protocol based broth microdilution method", "assay_type": "functional", "conditions": "time 18-20 hrs"}, "Listeria monocytogenes [11]": {"test_system": "Listeria monocytogenes", "assay": "Antibacterial activity against Listeria monocytogenes ATCC 19111 assessed as inhibition of bacterial growth measured after 18 to 20 hrs by CLSI protocol based broth microdilution method", "assay_type": "functional", "conditions": "time 18-20 hrs"}, "physchem": {"assay": "physchem", "conditions": "phosphate-buffered saline, pH 7.4"}, "[12]": {"assay": "Intrinsic clearance in human liver microsomes at 0.1 uM in absence of NADPH measured upto 60 mins by LC/MS/MS analysis", "assay_type": "ADME, Microsome", "conditions": "read-out: CLH"}, "Enterococcus faecalis [13]": {"test_system": "Enterococcus faecalis", "assay": "microbe, parasite or virus in culture", "conditions": "ATCC 51299"}, "Staphylococcus aureus [14]": {"test_system": "Staphylococcus aureus", "assay": "Bactericidal activity against methicillin-resistant Staphylococcus aureus USA400 NRS123 assessed as log reduction in viable bacteria count at 5 times MIC incubated for 2 hrs in soy broth followed by incubation for 18 to 20 hrs on agar plate by time kill assay", "assay_type": "functional", "conditions": "time 20-22 hrs"}, "Staphylococcus aureus [15]": {"test_system": "Staphylococcus aureus", "assay": "microbe, parasite or virus in culture", "conditions": "USA400 NRS123"}, "Staphylococcus aureus [16]": {"test_system": "Staphylococcus aureus", "assay": "Antibacterial activity against methicillin-resistant Staphylococcus aureus USA400 NRS123 infected in mouse J774 cells assessed as reduction in intracellular bacterial burden at 2 x MIC measured after 24 hrs relative to control", "assay_type": "functional"}, "Staphylococcus aureus [17]": {"test_system": "Staphylococcus aureus", "assay": "microbe, parasite or virus in culture", "conditions": "ATCC 6538"}, "[18]": {"test_system": "Staphylococcus epidermidis", "assay": "Antibacterial activity against methicillin-resistant Staphylococcus epidermidis NRS101 assessed as inhibition of bacterial growth measured after 18 to 20 hrs by CLSI protocol based broth microdilution method", "assay_type": "functional", "conditions": "time 18-20 hrs"}, "[19]": {"assay": "Selectivity index, ratio of maximum non-toxic concentration for human Caco-2 cells to MIC for methicillin-resistant Staphylococcus aureus USA500 NRS385", "assay_type": "toxicity"}, "Enterococcus faecium": {"test_system": "Enterococcus faecium", "assay": "Ratio of MBC to MIC for vancomycin-resistant Enterococcus faecium ATCC 700221 assessed as inhibition of bacterial growth measured after 18 to 20 hrs by CLSI protocol based broth microdilution method", "assay_type": "functional", "conditions": "time 18-20 hrs"}, "Streptococcus pneumoniae [20]": {"test_system": "Streptococcus pneumoniae", "assay": "Antibacterial activity against cephalosporin-resistant Streptococcus pneumoniae ATCC 51916 assessed as inhibition of bacterial growth measured after 18 to 20 hrs by CLSI protocol based broth microdilution method", "assay_type": "functional", "conditions": "time 18-20 hrs"}, "J774": {"test_system": "J774", "assay": "Cytotoxicity against mouse J774 cells assessed as cell viability at 32 ug/ml incubated for 2 hrs by MTS assay", "assay_type": "cell-based", "conditions": "j774, 2 h, dose 32 µg/ml"}, "Streptococcus pneumoniae [21]": {"test_system": "Streptococcus pneumoniae", "assay": "Ratio of MBC to MIC for cephalosporin-resistant Streptococcus pneumoniae ATCC 51916 assessed as inhibition of bacterial growth measured after 18 to 20 hrs by CLSI protocol based broth microdilution method", "assay_type": "functional", "conditions": "time 18-20 hrs"}, "Staphylococcus aureus [22]": {"test_system": "Staphylococcus aureus", "assay": "microbe, parasite or virus in culture", "conditions": "USA500 NRS385"}, "Streptococcus pneumoniae [23]": {"test_system": "Streptococcus pneumoniae", "assay": "Antibacterial activity against methicillin-resistant Streptococcus pneumoniae ATCC 700677 assessed as inhibition of bacterial growth measured after 18 to 20 hrs by CLSI protocol based broth microdilution method", "assay_type": "functional", "conditions": "time 18-20 hrs"}, "Staphylococcus aureus [24]": {"test_system": "Staphylococcus aureus", "assay": "microbe, parasite or virus in culture", "conditions": "NRS119"}, "Staphylococcus aureus [25]": {"test_system": "Staphylococcus aureus", "assay": "Ratio of MBC to MIC against methicillin-sensitive Staphylococcus aureus NRS107 assessed as inhibition of bacterial growth measured after 18 to 20 hrs by CLSI protocol based broth microdilution method", "assay_type": "functional", "conditions": "time 18-20 hrs"}, "Staphylococcus aureus [26]": {"test_system": "Staphylococcus aureus", "assay": "Bactericidal activity against methicillin-resistant Staphylococcus aureus USA400 NRS123 assessed as eradication of bacterial count at 5 times MIC incubated for 8 hrs in soy broth followed by incubation for 18 to 20 hrs on agar plate by time kill assay", "assay_type": "functional", "conditions": "time 26-28 hrs"}, "Staphylococcus aureus [27]": {"test_system": "Staphylococcus aureus", "assay": "Antibacterial activity against methicillin-resistant Staphylococcus aureus USA400 NRS123 infected in mouse J774 cells assessed as log reduction in intracellular bacterial burden at 4 x MIC measured after 24 hrs", "assay_type": "functional"}, "Staphylococcus aureus [28]": {"test_system": "Staphylococcus aureus", "assay": "Ratio of MBC to MIC against methicillin-sensitive Staphylococcus aureus ATCC 6538 assessed as inhibition of bacterial growth measured after 18 to 20 hrs by CLSI broth microdilution method", "assay_type": "functional", "conditions": "time 18-20 hrs"}, "Enterococcus faecalis [29]": {"test_system": "Enterococcus faecalis", "assay": "Ratio of MBC to MIC for vancomycin-resistant Enterococcus faecalis ATCC 51299 assessed as inhibition of bacterial growth measured after 18 to 20 hrs by CLSI protocol based broth microdilution method", "assay_type": "functional", "conditions": "time 18-20 hrs"}, "Staphylococcus aureus [30]": {"test_system": "Staphylococcus aureus", "assay": "microbe, parasite or virus in culture", "conditions": "NRS107"}}, "data": [{"smiles": "C/C(=N\\NC(=N)N)c1ccc(Nc2nc(-c3ccc(C)cc3)cs2)cc1", "values": [{"measurement": "Activity", "setting": "Staphylococcus aureus [1]", "result": 1.19, "unit": "log10CFU/ml"}, {"measurement": "PAE", "setting": "Staphylococcus aureus [2]", "result": 6, "unit": "h"}, {"measurement": "selectivity ratio", "setting": "[3]", "result": 16}, {"measurement": "Ratio", "setting": "Staphylococcus aureus [4]", "result": 1}, {"measurement": "half-life at 0.1 µM", "setting": "[5]", "result": 4.23, "unit": "h"}, {"measurement": "MBC", "setting": "Staphylococcus aureus [6]", "result": 2, "unit": "µg/mL"}, {"measurement": "MIC", "setting": "Staphylococcus aureus [6]", "result": 2, "unit": "µg/mL"}, {"measurement": "viability at 2 h, 64 ug/ml", "setting": "[7]", "result": 100, "unit": "%"}, {"measurement": "Ratio", "setting": "Streptococcus pneumoniae [8]", "result": 1}, {"measurement": "selectivity ratio", "setting": "[9]", "result": 16}, {"measurement": "microsomal CLint at 1 h, 0.1 µM", "setting": "in vitro", "result": 58.9, "unit": "µL/min/mg"}, {"measurement": "Ratio", "setting": "Listeria monocytogenes [10]", "result": 1}, {"measurement": "MBC", "setting": "Listeria monocytogenes [11]", "result": 2, "unit": "µg/mL"}, {"measurement": "MIC", "setting": "Listeria monocytogenes [11]", "result": 1, "unit": "µg/mL"}, {"measurement": "solubility kinetic at 2 h", "setting": "physchem", "result": 26.7, "unit": "µM"}, {"measurement": "microsomal CLint at 0.1 µM", "setting": "[12]", "result": 27.3, "unit": "µL/min/mg"}, {"measurement": "MBC", "setting": "Enterococcus faecalis [13]", "result": 4, "unit": "µg/mL"}, {"measurement": "MIC", "setting": "Enterococcus faecalis [13]", "result": 2, "unit": "µg/mL"}, {"measurement": "Activity", "setting": "Staphylococcus aureus [14]", "result": 3, "unit": "log10CFU/ml"}, {"measurement": "MBC", "setting": "Staphylococcus aureus [15]", "result": 2, "unit": "µg/mL"}, {"measurement": "MIC", "setting": "Staphylococcus aureus [15]", "result": 2, "unit": "µg/mL"}, {"measurement": "inhibition (INH)", "setting": "Staphylococcus aureus [16]", "result": 93, "unit": "%"}, {"measurement": "MBC", "setting": "Staphylococcus aureus [17]", "result": 4, "unit": "µg/mL"}, {"measurement": "MIC", "setting": "Staphylococcus aureus [17]", "result": 2, "unit": "µg/mL"}, {"measurement": "MBC", "setting": "[18]", "result": 1, "unit": "µg/mL"}, {"measurement": "MIC", "setting": "[18]", "result": 1, "unit": "µg/mL"}, {"measurement": "selectivity ratio", "setting": "[19]", "result": 16}, {"measurement": "Ratio", "setting": "Enterococcus faecium", "result": 1}, {"measurement": "MBC", "setting": "Streptococcus pneumoniae [20]", "result": 4, "unit": "µg/mL"}, {"measurement": "MIC", "setting": "Streptococcus pneumoniae [20]", "result": 2, "unit": "µg/mL"}, {"measurement": "Activity", "setting": "J774", "result": "Non-Toxic"}, {"measurement": "Ratio", "setting": "Streptococcus pneumoniae [21]", "result": 1}, {"measurement": "MBC", "setting": "Staphylococcus aureus [22]", "result": 2, "unit": "µg/mL"}, {"measurement": "MIC", "setting": "Staphylococcus aureus [22]", "result": 2, "unit": "µg/mL"}, {"measurement": "MBC", "setting": "Streptococcus pneumoniae [23]", "result": 8, "unit": "µg/mL"}, {"measurement": "MIC", "setting": "Streptococcus pneumoniae [23]", "result": 2, "unit": "µg/mL"}, {"measurement": "MBC", "setting": "Staphylococcus aureus [24]", "result": 4, "unit": "µg/mL"}, {"measurement": "MIC", "setting": "Staphylococcus aureus [24]", "result": 2, "unit": "µg/mL"}, {"measurement": "Ratio", "setting": "Staphylococcus aureus [25]", "result": 1}, {"measurement": "Activity", "setting": "Staphylococcus aureus [26]", "result": 100, "unit": "%"}, {"measurement": "Activity", "setting": "Staphylococcus aureus [27]", "result": 2.49, "unit": "log10CFU/ml"}, {"measurement": "Ratio", "setting": "Staphylococcus aureus [28]", "result": 1}, {"measurement": "Ratio", "setting": "Enterococcus faecalis [29]", "result": 1}, {"measurement": "MBC", "setting": "Staphylococcus aureus [30]", "result": 2, "unit": "µg/mL"}, {"measurement": "MIC", "setting": "Staphylococcus aureus [30]", "result": 2, "unit": "µg/mL"}]}]}
